Source: PMC3961306, “Comparison of the Cancer Gene Targeting and Biochemical Selectivities of All Targeted Kinase Inhibitors Approved for Clinical Use” (PLoS ONE, 2014)
Where two headings read alike, the source gives them in different places.

Legend:
[1] = test system: forty-four human cancer cell lines; test: Cell proliferation assay (ATPlite, 72 hours) in the 44 cell line Oncolines panel; type: cell-based; details: Homo sapiens
[2] = target: T1, panel of more than 300 wild-type and mutant kinases (313 kinase panel) (Homo sapiens, UniProt Q96PF2); test: Kinase profiling in a biochemical assay panel (mobility shift assays and ELISA), %-inhibition at 1 μM; selectivity entropy; details: kinase TSSK2; 1 μM
T1 sequence (Q96PF2 1-358): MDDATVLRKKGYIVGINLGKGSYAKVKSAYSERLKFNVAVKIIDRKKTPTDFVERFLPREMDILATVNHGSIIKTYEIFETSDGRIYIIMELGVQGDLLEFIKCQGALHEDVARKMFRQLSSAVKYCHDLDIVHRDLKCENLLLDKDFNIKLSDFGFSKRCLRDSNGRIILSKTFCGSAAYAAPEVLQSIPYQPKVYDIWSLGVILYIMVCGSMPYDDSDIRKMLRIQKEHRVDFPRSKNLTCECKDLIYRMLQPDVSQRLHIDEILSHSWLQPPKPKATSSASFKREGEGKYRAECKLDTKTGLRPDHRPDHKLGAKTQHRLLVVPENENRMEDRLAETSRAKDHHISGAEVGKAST

[3] = target: panel of more than 300 wild-type and mutant kinases (313 kinase panel) (Homo sapiens, UniProt O95819); test: as above; details: kinase HGK; compound at 1 μM
[4] = target: panel of more than 300 wild-type and mutant kinases (313 kinase panel) (Homo sapiens, UniProt P29376); test: as above; details: kinase LTK; compound at 1 μM
[5] = target: panel of more than 300 wild-type and mutant kinases (313 kinase panel) (Homo sapiens, UniProt Q9H1R3); test: as above; details: kinase skMLCK; 1 μM
[6] = 4-4 cell, read-out: cell panel IC50, J82
[7] = 4-4 cell, read-out: cell panel IC50, PA-1
[8] = 4-4 cell, read-out: cell panel IC50, SJCRH30
[9] = 4-4 cell, read-out: cell panel IC50, SR
[10] = 769-P, read-out: cell panel IC50, 769-P
[11] = 786-0, read-out: cell panel IC50, 786-0
[12] = A 172, read-out: cell panel IC50, A-172
[13] = A204, read-out: cell panel IC50, A-204
[14] = A498, read-out: cell panel IC50, A-498
[15] = A549, read-out: cell panel IC50, A-549
[16] = A-375, read-out: cell panel IC50, A375
[17] = A-427, read-out: cell panel IC50, A-427
[18] = ACHN, read-out: cell panel IC50, ACHN
[19] = AN3-CA, read-out: cell panel IC50, AN3 CA
[20] = AU565, read-out: cell panel IC50, AU-565
[21] = BT-20, read-out: cell panel IC50, BT-20
[22] = BT-549, read-out: cell panel IC50, BT-549
[23] = BXPC-3, read-out: cell panel IC50, BxPC-3
[24] = C-33-A, read-out: cell panel IC50, C-33 A
[25] = CAL-27, read-out: cell panel IC50, CAL 27
[26] = CCRF-CEM, read-out: cell panel IC50, CCRF-CEM
[27] = DLD-1, read-out: cell panel IC50, DLD-1
[28] = FaDu, read-out: cell panel IC50, FaDu
[29] = HCT-15, read-out: cell panel IC50, HCT-15
[30] = HCT-116, read-out: cell panel IC50, HCT-116
[31] = Hs-578T, read-out: cell panel IC50, Hs 578T
[32] = Jurkat E6.1, read-out: cell panel IC50, Jurkat E6.1
[33] = K562, read-out: cell panel IC50, K-562
[34] = LS174T, read-out: cell panel IC50, LS 174T
[35] = LoVo, read-out: cell panel IC50, LoVo
[36] = MG-63, read-out: cell panel IC50, MG-63
[37] = MOLT-4, read-out: cell panel IC50, MOLT-4
[38] = MeWo, read-out: cell panel IC50, MeWo
[39] = NCI-H82, read-out: cell panel IC50, NCI-H82
[40] = NCI-H460, read-out: cell panel IC50, NCI-H460
[41] = OVCAR-3, read-out: cell panel IC50, OVCAR-3
[42] = RPMI-7951, read-out: cell panel IC50, RPMI-7951
[43] = SHP77, read-out: cell panel IC50, SHP-77
[44] = SK-N-AS, read-out: cell panel IC50, SK-N-AS
[45] = SW48, read-out: cell panel IC50, SW48
[46] = SW480, read-out: cell panel IC50, SW480
[47] = SW-620, read-out: cell panel IC50, SW620
[48] = U-87 MG, 72 h, read-out: IC50 in cell proliferation assay (table S5 cellpanel data)

CN(C)C/C=C/C(=O)Nc1cc2c(Nc3ccc(F)c(Cl)c3)ncnc2cc1O[C@H]1CCOC1 [afatinib]
IC50 [1, 6]: 3340 nM
IC50 [1, 7]: 1900 nM
IC50 [1, 8]: 2440 nM
IC50 [1, 9]: 988 nM
IC50 [1, 10]: 2230 nM
IC50 [1, 11]: 2720 nM
IC50 [1, 12]: 2950 nM
IC50 [1, 13]: 2220 nM
IC50 [1, 14]: 2730 nM
IC50 [1, 15]: 3160 nM
IC50 [1, 16]: 1280 nM
IC50 [1, 17]: 2900 nM
IC50 [1, 18]: 297 nM
IC50 [1, 19]: 2780 nM
IC50 [1, 20]: 13 nM
IC50 [1, 21]: 4350 nM
IC50 [1, 22]: 3270 nM
IC50 [1, 23]: 3690 nM
IC50 [1, 24]: 21 nM
IC50 [1, 25]: 434 nM
IC50 [1, 26]: 1280 nM
IC50 [1, 27]: 1710 nM
IC50 [1, 28]: 3.42 nM
IC50 [1, 29]: 1550 nM
IC50 [1, 30]: 935 nM
IC50 [1, 31]: 3380 nM
IC50 [1, 32]: 870 nM
IC50 [1, 33]: 3270 nM
IC50 [1, 34]: 1310 nM
IC50 [1, 35]: 2070 nM
IC50 [1, 36]: 2830 nM
IC50 [1, 37]: 922 nM
IC50 [1, 38]: 3770 nM
IC50 [1, 39]: 2230 nM
IC50 [1, 40]: 2640 nM
IC50 [1, 41]: 2100 nM
IC50 [1, 42]: 3580 nM
IC50 [1, 43]: 3660 nM
IC50 [1, 44]: 2230 nM
IC50 [1, 45]: 4170 nM
IC50 [1, 46]: 3640 nM
IC50 [1, 47]: 3360 nM
IC50 ([1]; U2OS, read-out: cell panel IC50, U-2 OS): 2570 nM
IC50 [1, 48]: 5020 nM
%-inhibition of TSSK2 [2]: 2%

CCN(CC)CCNC(=O)c1c(C)[nH]c(/C=C2\C(=O)Nc3ccc(F)cc32)c1C [sunitinib]
IC50 [1, 6]: 3500 nM
IC50 [1, 7]: 1310 nM
IC50 [1, 8]: 3140 nM
IC50 [1, 9]: 527 nM
IC50 [1, 10]: 2660 nM
IC50 [1, 11]: 2620 nM
IC50 [1, 12]: 3280 nM
IC50 [1, 13]: 4080 nM
IC50 [1, 14]: 1970 nM
IC50 [1, 15]: 2260 nM
IC50 [1, 16]: 1550 nM
IC50 [1, 17]: 1060 nM
IC50 [1, 18]: 1320 nM
IC50 [1, 19]: 1510 nM
IC50 [1, 20]: 3960 nM
IC50 [1, 21]: 13200 nM
IC50 [1, 22]: 4840 nM
IC50 [1, 23]: 2290 nM
IC50 [1, 24]: 1980 nM
IC50 [1, 25]: 3080 nM
IC50 [1, 26]: 3210 nM
IC50 [1, 27]: 3130 nM
IC50 [1, 28]: 2000 nM
IC50 [1, 29]: 2110 nM
IC50 [1, 30]: 2680 nM
IC50 [1, 31]: 3480 nM
IC50 [1, 32]: 1060 nM
IC50 [1, 33]: 2090 nM
IC50 [1, 34]: 3520 nM
IC50 [1, 35]: 962 nM
IC50 [1, 36]: 3360 nM
IC50 [1, 37]: 828 nM
IC50 [1, 38]: 3420 nM
IC50 [1, 39]: 2280 nM
IC50 [1, 40]: 3430 nM
IC50 [1, 41]: 8630 nM
IC50 [1, 42]: 3670 nM
IC50 [1, 43]: 5700 nM
IC50 [1, 44]: 1860 nM
IC50 [1, 45]: 3700 nM
IC50 [1, 46]: 5650 nM
IC50 [1, 47]: 2540 nM
IC50 [1, 48]: 5750 nM
%-inhibition of HGK [3]: 96%
%-inhibition of LTK [4]: 81%
%-inhibition of skMLCK [5]: 91%
